In patent publication US12259539B2, “Optical microscope” (SMI DRUG DISCOVERY LIMITED, priority 2019, dated 2025):

Target: T1, P2X1 receptor (Homo sapiens, UniProt P51575)
T1 construct: made in house
T1 sequence (P51575 1-399): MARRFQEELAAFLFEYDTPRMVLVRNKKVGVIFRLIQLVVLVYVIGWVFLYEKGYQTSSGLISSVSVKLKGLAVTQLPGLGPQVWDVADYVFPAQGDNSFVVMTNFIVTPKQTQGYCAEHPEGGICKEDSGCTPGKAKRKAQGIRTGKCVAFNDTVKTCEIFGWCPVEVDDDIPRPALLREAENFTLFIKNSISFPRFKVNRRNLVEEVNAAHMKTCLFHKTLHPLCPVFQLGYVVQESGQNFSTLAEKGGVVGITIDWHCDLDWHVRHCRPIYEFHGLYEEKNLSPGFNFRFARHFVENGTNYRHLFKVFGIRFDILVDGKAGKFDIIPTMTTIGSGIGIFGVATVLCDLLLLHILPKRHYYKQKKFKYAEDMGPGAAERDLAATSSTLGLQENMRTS
Assay: Single molecule stochastic binding of ATP* to purified P2X1 reconstituted in lipid bilayers
Conditions: corrected for photophysical blinking and photochemical bleach; compared with bulk measurements
Excerpt: Plasmids: A FLAG-tagged human P2X1 subunit construct was generated by fusion PCR, and cloned together with an IRES-IFP1.4 fusion PCR product as a three-point ligation into the Mlul/Spel digested pLV-T backbone (see Shu, X.; Royant, A.; Lin, M. Z.; Aguilera, T. A.; Lev-Ram, V.; Steinbach, P. A.; Tsien, R. Y. Science 2009, 324, 804; and Marquis, J.; Kampfer, S. S.; Angehrn, L.; Schumperli, D. Gene therapy 2009, 16, 70.)
Protein Purification: HEK 293T cells stably expressing the FLAG-P2X1 receptor were grown as monolayers in T300 plates. At a density of 80%, cells were washed once with phosphate buffered saline (PBS (mM); 0.1 NaCl, 2.0 Na2HPO4, 0.54 KCl, 0.4 KH2PO4, pH 7.4), mechanically detached into PBS, collected by centrifugation at 500 g for 5 min, snap frozen in liquid N2 and stored at −70° C. until needed. After defrosting, cells were diluted with 2 mL Tris-EDTA (50 mM Tris-HCl, 0.5 mM EDTA, pH 7.5) containing Halt Protease Inhibitor (Pierce, Thermo Scientific, IL, USA) and homogenized with a 5 mL cell-douncer, followed by trituration through 21-gauge and 27-gauge needles. […]

For “2′/3′-O-(2-Aminoethyl-carbamoyl)-Adenosine-5′-triphosphate, labelled with ATTO-700 [ATP*]”, the “binding coefficients from single receptor binding data” value was “statistically identical to overall bulk measurements”.
